By MIC50 is commonly meant the lowest concentration that inhibits either 50% of growth or 50% of the strains tested, depending on the study. What is called pIC50 is the IC50 on a negative log10 scale, so that one unit is a factor of ten.

Data set [1] has as its system Mus musculus. The data set is described as follows: Anti-inflammatory activity in mouse infected with Candida albicans assessed as reduction in PD-L1 expression in spleen at 20 mg/kg, ip administered on days 2,4,6,8,10,12 and measured on day 14 by immunohistochemical analysis. It is filed as functional, organism-based. The settings on record: time 13.0 day.
The test system of data set [2] is Mus musculus. The data set is described as follows: Immunomodulatory activity in mouse infected with Candida albicans assessed as increase in expression intensity of CD8+ T cells in spleen at 20 mg/kg, ip administered on days 2,4,6,8,10,12 and measured on day 14 by immunohistochemical staining analysis relative to control. The settings on record: time 13 day. It is filed as functional, T-cell.

Data set [3] has as its system Mus musculus. The data set is described as follows: Anti-inflammatory activity in mouse infected with Candida albicans assessed as reduction in IL-6R expression in infection tissues at 20 mg/kg, ip administered on days 2,4,6,8,10,12 and measured on day 14 by western blot analysis. It is filed as functional, organism-based. The note with it: time 13.0 day.
For data set [4], the system named is Candida albicans. The data set can be described thus: Antifungal activity against Candida albicans infected in mouse assessed as shrinkage of fungal infection region at 20 mg/kg, ip administered on days 2,4,6,8,10,12 and measured on day 14. The settings on record: time 13.0 day. It is filed as functional, organism-based.
A short description of data set [5]: Hepatotoxicity in mouse infected with Candida albicans assessed as plasma ALT level at 20 mg/kg, ip administered on days 2,4,6,8,10,12 and measured on day 14 (reference value: 33.5 +/-3.4 IU/L). The note with it: in vivo, 312 h, time 13 day. It is filed as toxicity, organism-based.
Data set [6] in a line: Toxicity in mouse infected with Candida albicans assessed as morphological changes in lungs at 20 mg/kg, ip administered on days 2,4,6,8,10,12 and measured on day 14 by hematoxyin-eosin staining based analysis. It is filed as organism-based. The note with it: in vivo, 312 h, time 13 day.
The test system of data set [7] is Mus musculus. The data set can be described thus: Immunomodulatory activity in mouse infected with Candida albicans assessed as increase in expression intensity of CD3+ T cells in spleen at 20 mg/kg, ip administered on days 2,4,6,8,10,12 and measured on day 14 by immunohistochemical staining analysis relative to control. It is filed as functional, T-cell. The note with it: time 13 day.

Data set [8] can be described thus: Increase in intracellular ROS level in Cryptococcus neoformans assessed as fold increase in fluorescence intensity measured after 12 hrs by fluorescence microscopic analysis relative to control. It is filed as functional.
Another data set deals with Pichia kudriavzevii. The data set can be described thus: Antifungal activity against Candida krusei ATCC 6258 assessed as inhibition of fungal growth measured after 72 hrs by CLSI based liquid medium dilution method. It is filed as functional.
Data set [9] has as its system Candida albicans. The data set can be described thus: Induction of apoptosis in Candida albicans assessed as early apoptotic cells measured after 24 hrs by Annexin V-FITC/PI staining based flow cytometry (reference value: 0.46%). It is filed as functional.
Data set [10] has as its target Lanosterol 14-alpha demethylase (Candida albicans (strain SC5314 / ATCC MYA-2876) (Yeast), UniProt P10613). The data set is described as follows: Inhibition of CYP51 in Candida albicans ATCC SC5314 assessed as reduction in substrate consumption using lanosterol as substrate preincubated for 30 mins followed by substrate addition and measured after 60 mins by HPLC analysis.

Data set [11] relates to Candida albicans. The data set can be described thus: Induction of apoptosis in Candida albicans assessed as viable cells measured after 24 hrs by Annexin V-FITC/PI staining based flow cytometry (reference value: 95.7%). It is filed as functional. (Flow cytometry measures light scatter and fluorescence of single cells or particles in a stream.)
The test system of data set [12] is Mus musculus. The data set can be described thus: Anti-inflammatory activity in mouse infected with Candida albicans assessed as reduction in COX-2 expression in spleen at 20 mg/kg, ip administered on days 2,4,6,8,10,12 and measured on day 14 by immunohistochemical analysis. It is filed as functional, organism-based. The note with it: time 13.0 day.
In data set [13] the test system is Candida albicans. The data set is described as follows: Antifungal activity against fluconazole-resistant Candida albicans 17# assessed as inhibition of fungal growth measured after 72 hrs by CLSI based liquid medium dilution method. It is filed as functional.
Data set [14] deals with Mus musculus. The data set can be described thus: Anti-inflammatory activity in mouse infected with Candida albicans assessed as reduction in IL-6R expression in spleen at 20 mg/kg, ip administered on days 2,4,6,8,10,12 and measured on day 14 by immunohistochemical analysis. It is filed as functional, organism-based. The note with it: time 13.0 day.
Data set [15] in a line: Toxicity in mouse infected with Candida albicans assessed as morphological changes in heart at 20 mg/kg, ip administered on days 2,4,6,8,10,12 and measured on day 14 by hematoxyin-eosin staining based analysis. It is filed as organism-based. The settings on record: in vivo, 312 h, time 13 day.
Data set [16] has as its system Mus musculus. The data set is described as follows: Immunomodulatory activity in mouse infected with Candida albicans assessed as increase in expression intensity of CD8+ T cells in spleen at 20 mg/kg, ip administered on days 2,4,6,8,10,12 and measured on day 14 by immunohistochemical staining analysis relative to fluconazole. The note with it: time 13 day. It is filed as functional, T-cell.

Data set [17] has as its system Candida albicans. The data set can be described thus: Antifungal activity against fluconazole-resistant Candida albicans 904 assessed as inhibition of fungal growth measured after 72 hrs by CLSI based liquid medium dilution method. It is filed as functional.
Data set [18] deals with Candida albicans. The data set is described as follows: Antifungal activity against Candida albicans infected in mouse assessed as reduction in necrotic cell fragments in intercellular spaces of the infection region at 20 mg/kg, ip administered on days 2,4,6,8,10,12 and measured on day 14 by hematoxyin-eosin staining based analysis. It is filed as functional, organism-based. The settings on record: time 13.0 day.

A short description of data set [19]: Drug uptake in Candida albicans ATCC SC5314 assessed as increase in red and green fluorescence intensity measured after 10 hrs by PI/Hoechst […] staining based fluorescence microscopy. It is filed as ADME.
Data set [20] can be described thus: Toxicity in mouse infected with Candida albicans assessed as morphological changes in spleen at 20 mg/kg, ip administered on days 2,4,6,8,10,12 and measured on day 14 by hematoxyin-eosin staining based analysis. It is filed as organism-based. The settings on record: in vivo, 312 h, time 13 day.
The nature of data set [21]: Increase in intracellular ROS level in Candida albicans assessed as fold increase in fluorescence intensity measured after 12 hrs by fluorescence microscopic analysis relative to control. It is filed as functional.
For data set [22], the system named is Candida albicans. The data set is described as follows: Induction of apoptosis in Candida albicans assessed as late apoptotic cells measured after 24 hrs by Annexin V-FITC/PI staining based flow cytometry (reference value: 0.44%). It is filed as functional.
Data set [23] relates to Candida albicans. The data set can be described thus: Induction of apoptosis in Candida albicans assessed as necrotic cells measured after 24 hrs by Annexin V-FITC/PI staining based flow cytometry (reference value: 3.37%). It is filed as functional.
In data set [24] the target is T1, Prostaglandin G/H synthase 2 (Homo sapiens, UniProt P35354).
T1 sequence (P35354 whole entry): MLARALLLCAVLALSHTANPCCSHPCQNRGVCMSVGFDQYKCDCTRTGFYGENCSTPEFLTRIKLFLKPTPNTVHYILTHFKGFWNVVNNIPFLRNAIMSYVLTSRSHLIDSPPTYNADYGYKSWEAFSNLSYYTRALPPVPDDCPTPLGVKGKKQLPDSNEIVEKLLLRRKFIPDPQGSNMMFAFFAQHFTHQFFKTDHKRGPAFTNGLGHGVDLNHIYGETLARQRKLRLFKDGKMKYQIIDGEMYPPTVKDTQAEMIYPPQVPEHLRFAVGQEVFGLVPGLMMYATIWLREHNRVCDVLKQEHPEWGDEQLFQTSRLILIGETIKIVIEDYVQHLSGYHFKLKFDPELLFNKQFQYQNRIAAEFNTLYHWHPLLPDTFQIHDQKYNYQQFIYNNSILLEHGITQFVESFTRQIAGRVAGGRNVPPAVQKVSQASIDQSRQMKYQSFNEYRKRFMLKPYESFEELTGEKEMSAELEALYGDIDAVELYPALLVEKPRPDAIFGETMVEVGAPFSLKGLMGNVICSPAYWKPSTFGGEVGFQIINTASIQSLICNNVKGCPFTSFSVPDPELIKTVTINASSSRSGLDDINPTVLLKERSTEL
The data set is described as follows: Inhibition of COX2 (unknown origin) assessed as reduction in PGF2alpha content using arachidonic acid as substrate preincubated for 10 mins followed by substrate addition and measured after 2 mins by enzyme immunoassay.

pIC50: −log10 of the molar value. Converted amounts (≈) assume the structure as drawn. The source made the active and inactive calls. No cut-off for these calls is given here. Where only a bound is given, the exact number is not on record here.

Chain of Lanosterol 14-alpha demethylase (P10613 whole entry): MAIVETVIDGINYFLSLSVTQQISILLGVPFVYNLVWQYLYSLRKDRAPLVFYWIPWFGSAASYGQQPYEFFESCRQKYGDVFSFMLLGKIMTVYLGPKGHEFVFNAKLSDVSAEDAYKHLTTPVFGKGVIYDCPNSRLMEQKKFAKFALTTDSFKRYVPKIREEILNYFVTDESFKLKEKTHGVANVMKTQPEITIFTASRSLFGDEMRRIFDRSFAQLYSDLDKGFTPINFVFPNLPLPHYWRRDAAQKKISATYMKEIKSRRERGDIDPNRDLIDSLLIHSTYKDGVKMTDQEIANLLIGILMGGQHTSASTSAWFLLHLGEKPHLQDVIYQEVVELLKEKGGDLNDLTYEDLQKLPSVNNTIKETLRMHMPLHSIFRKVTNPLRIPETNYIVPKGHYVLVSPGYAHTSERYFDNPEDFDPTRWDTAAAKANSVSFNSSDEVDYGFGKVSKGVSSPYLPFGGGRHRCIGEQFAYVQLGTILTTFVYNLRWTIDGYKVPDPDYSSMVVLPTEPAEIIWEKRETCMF

Turning to `C[C@H](C(=O)N(C)CC(O)(Cn1ccnc1)c1ccc(Cl)cc1Cl)c1cccc(C(=O)c2ccccc2)c1` (some centres undefined), the result with Mus musculus [1], in the data set with Mus musculus [3], with Candida albicans [4], in the data set on Mus musculus [12], in the data set with Mus musculus [14] and in the data set with Candida albicans [18] was Active. For the same compound, the “fold change (FC)” value in the data set with Mus musculus [2] was determined as 2.12; in the data set with Mus musculus [7], 2.12; in data set [8], 4; in the data set with Mus musculus [16], 2.12; in data set [21] it was 4. The Activity is given as 43.2 IU/L in [5]; “Non-Toxic” in [6]; 2.13% in the data set with Candida albicans [9]; 43.8% with Candida albicans [11]; “Non-Toxic” in [15]; “Non-Toxic” in data set [20]. The Activity in the data set on Candida albicans [22] is 28.1%; in the data set with Candida albicans [23] it was 26%. Moreover, the MIC50 in the data set on Pichia kudriavzevii worked out at 0.125 µg/mL (≈ 0.233 µM); in the data set with Candida albicans [13] it was 2 µg/mL (≈ 3.73 µM); in the data set on Candida albicans [17] it was 1 µg/mL (≈ 1.86 µM). For the same compound, the values for the negative logarithm of the IC50 (pIC50) in data set [10] and in [24] were 6.80 and 5.71, respectively. In addition, in data set [19], the Drug uptake result is “Active”.

On to `C[C@H](C(=O)N(C)CC(O)(Cn1ccnc1)c1ccc(Cl)cc1)c1ccc(-c2ccccc2)c(F)c1` (some centres undefined), for which the outcome in the data set with Mus musculus [1], in the data set on Mus musculus [3], with Candida albicans [4], with Mus musculus [12], in the data set with Mus musculus [14] and with Candida albicans [18] was Active. In addition, the “fold change (FC)” value in the data set with Mus musculus [2] was 2.12; in the data set with Mus musculus [7] it was 2.12; in data set [8], 4; with Mus musculus [16], 2.12; in data set [21] it was 4. The Activity in data set [5] is reported as 42.4 IU/L; in [6], “Non-Toxic”; in the data set on Candida albicans [9], 1.8%; in the data set on Candida albicans [11] it was 44.4%; in data set [15], “Non-Toxic”; in data set [20], “Non-Toxic”. Besides, the Activity in the data set with Candida albicans [22] came out at 19.4%; in the data set with Candida albicans [23] it was 34.3%. The MIC50 in the data set on Pichia kudriavzevii came out at 0.25 µg/mL (≈ 0.508 µM); with Candida albicans [13], 2 µg/mL (≈ 4.07 µM); in the data set with Candida albicans [17], 2 µg/mL (≈ 4.07 µM). In addition, the pIC50 in data set [10] was 6.72; in [24] it was 5.64. In data set [19], the Drug uptake entry is on record as “Active”.

`OC(Cn1cncn1)(Cn1cncn1)c1ccc(F)cc1F` [FLUCONAZOLE]: the result with Mus musculus [1], with Mus musculus [3], with Mus musculus [12], in the data set on Mus musculus [14] and in the data set on Candida albicans [18] was Active. The Activity is on record as 46.1 IU/L in [5]; 12.3% in the data set with Candida albicans [9]; 68.7% with Candida albicans [11]; 5.96% with Candida albicans [22]; 13% in the data set with Candida albicans [23]. Besides, the results for the MIC50 with Pichia kudriavzevii, in the data set on Candida albicans [13] and with Candida albicans [17] were 1 µg/mL (≈ 3.27 µM), greater than 8 µg/mL and greater than 8 µg/mL, respectively. For the same compound, the negative-log IC50 (pIC50) in data set [10] was 6.96.

The values above are taken from ChEMBL document CHEMBL5214990, “Novel Aryl Alkamidazole Derivatives as Multifunctional Antifungal Inhibitors: Design, Synthesis, and Biological Evaluation” (J Med Chem, 2022).
